We go through five molecules from patent US20220226270A1, “VERY-LONG-CHAIN POLYUNSATURATED FATTY ACIDS, ELOVANOID HYDROXYLATED DERIVATIVES, AND METHODS OF USE” (Board of Supervisors of Louisiana State University and …, priority 2019, published 2022).

One test concerns primary human RPE cells. The test is described as follows: UOS-induced cell death in primary human RPE cells (Hoechst staining). It is filed as cell-based. The following applies: for UOS-induced primary human RPE cell death: UOS for 16 h + 32:6n3 or 34:6n3 (FIG. 8C); for cell death (apoptosis): UOS with H2O2 (800 μM), 16 h, VLC-PUFAs 3 μM each, NPD1 200 nM, UOS alone 50% cell death. As to the method:
Exposure of RPE cells to UOS and VLC-PUFA: For cell viability assay experiments hRPE cells were treated concomitantly with NPD1 (200 nM), 32-6, 34-6 (3 μM each) fatty acids or both 32-6 and 34-6 simultaneously. The hRPE medium was supplemented with 3 μM of 32-6 and 34-6 for the entire duration of the experiment. 15 lox-1 inhibitor (10 μM) was added to the cells 1 hour prior the OS induction and kept throughout the experiment. Cells were fixed with 4% PFA and stained with Hoescht.
To assess cell death, hRPE and ARPE-19 cells were fixed with methanol for 15 mins, washed with 1× PBS then loaded with 2 μM Hoechst dissolved in a Locke's solution (Promega) and incubated for another 15 mins before imaging. Cells were then viewed by using a Zeiss LSM 510 confocal microscope under UV fluorescence. Images were recorded and cell apoptosis was assessed by using an automated unbiased method.
To test the efficacy of 32:6n3 and 34:6n3 VLC-PUFAs to modulate human RPE cell homeostasis and survival rates, human RPE cells undergoing UOS were incubated with both VLC-PUFAs (3 μM each) and NPD1 (200 nM) 16 h. The addition of H2O2 (800 μM) induced apoptosis (50% cell death).
hRPE cells, formerly serum deprived for 12 h, were incubated with the 15 lipoxygenase 1 (15-LOX-1) inhibitor (PD146176) (10 μM for 1 h), then bathed with 600 μM H2O2/TNF-α in conjunction with a mixture of 32:6n3 and 34:6n3 (3 μM each) for 16 h. The 15-LOX-1 inhibitor sensitizes cells; therefore, a lower concentration of H2O2 than in the cytoprotection experiment was used.

Test [1] has as its system cerebral cortical mixed neuronal cells. The test is described as follows: NMDA excitotoxicity in cerebral cortical mixed neuronal cultures. In kind it is cell-based, rat. The settings on record: for synergy with NPD1 in neuroprotection against NMDA excitotoxicity: ELV 200 nM + NPD1 100 nM, NMDA 100 μM, 12 h (FIG. 16A); for NMDA dose-dependent increase of apoptotic nuclei: NMDA 25, 50 or 100 μM; for neuroprotection on addition of MK801 and NPD1 together, versus ELV alone: NMDA excitotoxicity; for frequency distribution of pyknotic vs non-pyknotic nuclei (nuclear size peak) after NMDA: 500 nM, NMDA 100 μM 12 h, DIV 12, Hoechst. From the text:
Primary cultures of cortical neurons: Primary cultures of cortical and hippocampal neurons were harvested from 18-day-old embryos (E18) taken from timed-pregnant, two-month-old Sprague-Dawley (SD) rats (Charles River Lab., Wilmington, Mass.). Briefly, timed-pregnant SD rats were euthanized and embryos were collected in sterile conditions. Embryonic brains were dissected out by forceps on ice and placed in a petri dish containing ice-cold Hank's Balanced Salt Solution (HBSS) (GIBCO). Meninges were removed under a dissecting microscope and cortical tissues were chopped into small pieces with micro-spring scissors. These tissues were transferred to 15 ml tubes containing trypsin-EDTA (0.025% in HBSS) and DNase I. The tubes were incubated in 37° C. chamber for 15 mins and were agitated every 5 mins. After stopping the trypsinization with 5 ml 10% FBS, these tissues were triturated 15 times with a fire polished Pasteur pipet. Cell clumps were left to settle for 2 mins and the supernatant was transferred to a 15 ml Eppendorf tube. The supernatant was filtered through a 70 μm pore-sized filter (Corning cell strainer) and centrifuged for 5 mins at 1000 rpm. The cells were then resuspended in Neurobasal medium (GIBCO) containing 2% B27 (GIBCO) and 2% N2 (GIBCO) supplements, along with 0.5 mM glutamine, 50 U/ml penicillin/streptomycin.
Cells were counted using a Neubauer hemocytometer. 1×10^6 cells were seeded on poly-D-lysine-coated 12 well cell culture dish (CORNING) and cultured in incubator (37° C., 5% CO2). Culture medium was first replaced after 24 h, then half of the medium was replaced with fresh medium every three days. As a result, approximately, 90% purity of neurons was obtained as determined by class-III-β tubulin, GFAP and Hoechst 33258 staining. Cells were maintained in culture for about 2 weeks until they were exposed to uncompensated oxidative stress, OGD, or NMDA excitotoxicity.
After 90 mins of OGD exposure, cells were returned to the original medium (Neurobasal medium (GIBCO) containing 2% B27 (GIBCO) and 2% N2 (GIBCO) supplements, along with 0.5 mM glutamine, 50 U/ml penicillin/streptomycin) and placed in a normoxic chamber (37° C., 5% CO2) for 2 h. Then the medium was changed with medium containing either ELV-N32 or ELV-N34 [500 nM] and maintained in a normoxic chamber (37° C., 5% CO2) for 12 h, after which cells were sampled and assayed for cell viability using different methods as previously described (25-28). Cerebral cortical mixed neuronal cells or hippocampal cells in culture were exposed to either NMDA or uncompensated oxidative stress (UOS) for 12 h by addition of either NMDA (25 μM, 50 μM, or 100 μM) concentration or by the addition of TNFα (10 ng/mL) and H2O2 (50 μM, 100 μM, or 200 μM). Cell viability and neuroprotection in the presence of ELV-N32, ELV-N34, 32:6, or 34:6 were assayed after 12 h.
Hoechst staining and unbiased image analysis: Cells were washed with 1× Dulbecco's Phosphate Buffered Saline (DPBS) containing no calcium or magnesium (GIBCO) and fixed for 10 mins using ice-cold 4% paraformaldehyde (PFA) followed by 15 mins incubation in 100% methanol. Cells were washed with 1× Phosphate Buffered Saline (PBS) pH 7.4 (GIBCO) and incubated in PBS containing 20 μM Hoechst 33258 (Molecular Probes) for 20 mins. Cells were then washed 3 times with 1× PBS and stored in 1× PBS at 4° C. until they were imaged for microscopy.
One 4×4 tile mosaic was acquired from the center of each well using a Zeiss 510 Meta laser confocal microscope and LSM 510 Meta software. Images were imported into image analysis software ImageJ (National Institutes of Health, Bethesda, Md.) and batch processed using custom macros. An Otsu auto threshold was applied to each image of Hoechst-stained nuclei, and the area of each detected object was recorded. Objects with areas <10 μm^2 were excluded from analysis. To estimate percentage non-pyknotic nuclei, a size cutoff value was chosen above which objects were assumed to be non-pyknotic. […]

With `CC/C=C\C/C=C\C/C=C\C/C=C\C/C=C\C/C=C\CCCCCCCCCCCCC(=O)O` [32:6n3, (14Z,17Z,20Z,23Z,26Z,29Z)-dotriaconta-14,17,20,23,26,29-hexaenoic acid], in the test on primary human RPE cells, the “UOS-induced primary human RPE cell death” value is listed as “cell death was prevented” and the “cell death (apoptosis)” value is 4%. Further, in test [1] (250 nM (FIG. 17 graph D)), the “NMDA excitotoxicity (precursor, 250 nM)” value is “attenuate NMDA excitotoxicity”.
For the molecule `CC/C=C\C/C=C\C/C=C\C/C=C\C/C=C\C/C=C\CCCCCCCCCCCCCCC(=O)O` [34:6n3, (16Z,19Z,22Z,25Z,28Z,31Z)-tetratriaconta-16,19,22,25,28,31-hexaenoic acid], in the test on primary human RPE cells, the “UOS-induced primary human RPE cell death” value was “cell death was prevented” and the “cell death (apoptosis)” value is 18%. In test [1] (500 nM (FIG. 16H)), the “NMDA receptor-mediated excitotoxicity (precursor, 500 nM)” value is “attenuates”.
`CC/C=C\C[C@H](O)\C=C/C=C/C=C/[C@H](O)C/C=C\C/C=C\CCCCCCCCCCCCC(=O)OC` [ELV-N32-Me, methyl (14Z,17Z,20R,21E,23E,25Z,27S,29Z)-20,27-dihydroxydotriaconta-14,17,21,23,25,29-hexaenoate]: in test [1], the “synergy with NPD1 in neuroprotection against NMDA excitotoxicity” value is recorded as “showed synergy”; the “NMDA dose-dependent increase of apoptotic nuclei” value is reported as “compensated for”; the “neuroprotection on addition of MK801 and NPD1 together, versus ELV alone” value was “improved the neuroprotection”. Also, in test [1] (versus ELV-N32-Na and NPD1 together), the “relative potency of combination with NPD1” value is reported as “more potent”.
On to `CC/C=C\C[C@H](O)\C=C/C=C/C=C/[C@H](O)C/C=C\C/C=C\CCCCCCCCCCCCC(=O)[O-].[Na+]` [ELV-N32-Na, sodium (14Z,17Z,20R,21E,23E,25Z,27S,29Z)-20,27-dihydroxydotriaconta-14,17,21,23,25,29-hexaenoate], for which, in test [1], the “frequency distribution of pyknotic vs non-pyknotic nuclei (nuclear size peak) after NMDA” value is “positive rightward shift”; the “synergy with NPD1 in neuroprotection against NMDA excitotoxicity” value is on record as “showed synergy”; the “NMDA dose-dependent increase of apoptotic nuclei” value was “compensated for”; the “neuroprotection on addition of MK801 and NPD1 together, versus ELV alone” value is recorded as “improved the neuroprotection”.
For the molecule `CC/C=C\C[C@H](O)\C=C/C=C/C=C/[C@H](O)C/C=C\C/C=C\CCCCCCCCCCCCCCC(=O)OC` [ELV-N34-Me, methyl (16Z,19Z,22R,23E,25E,27Z,29S,31Z)-22,29-dihydroxytetratriaconta-16,19,23,25,27,31-hexaenoate], the “frequency distribution of pyknotic vs non-pyknotic nuclei (nuclear size peak) after NMDA” value in test [1] is listed as “positive rightward shift”.
